Measurements as given in publication PMC5615911 (Toxicology Reports, 2016).
Entries after “also recorded” stand apart in the source; their conditions may differ.

Assays:
CYP1A2 = biological target: T1, CYP1A2 (Homo sapiens, UniProt P05177); experiment: CYP inhibition, LC–MS/MS assay in human liver microsomes
T1 sequence (P05177 1-516): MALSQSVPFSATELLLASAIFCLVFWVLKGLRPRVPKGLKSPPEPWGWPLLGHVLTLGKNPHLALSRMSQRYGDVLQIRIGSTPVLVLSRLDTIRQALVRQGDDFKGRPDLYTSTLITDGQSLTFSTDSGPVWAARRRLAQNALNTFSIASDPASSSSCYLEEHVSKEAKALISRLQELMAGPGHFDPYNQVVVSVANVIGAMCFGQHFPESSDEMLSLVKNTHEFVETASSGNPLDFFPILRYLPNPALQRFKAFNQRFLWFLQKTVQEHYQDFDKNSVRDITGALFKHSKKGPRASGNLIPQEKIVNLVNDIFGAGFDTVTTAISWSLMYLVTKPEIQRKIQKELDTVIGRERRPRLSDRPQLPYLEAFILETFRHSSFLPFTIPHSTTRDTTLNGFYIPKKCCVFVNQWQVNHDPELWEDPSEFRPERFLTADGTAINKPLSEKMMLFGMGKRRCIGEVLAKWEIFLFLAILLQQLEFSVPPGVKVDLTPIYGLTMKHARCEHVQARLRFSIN

CYP2C19 = CYP2C19 (Homo sapiens, UniProt P33261); experiment: as above; settings: probe S-mephenytoin
[1] = tested on: GPCRs, ion channels, nuclear receptors, transporters; experiment: Receptor lead profiling panel; settings: 10 μM

Chain of CYP2C19 (P33261 whole entry): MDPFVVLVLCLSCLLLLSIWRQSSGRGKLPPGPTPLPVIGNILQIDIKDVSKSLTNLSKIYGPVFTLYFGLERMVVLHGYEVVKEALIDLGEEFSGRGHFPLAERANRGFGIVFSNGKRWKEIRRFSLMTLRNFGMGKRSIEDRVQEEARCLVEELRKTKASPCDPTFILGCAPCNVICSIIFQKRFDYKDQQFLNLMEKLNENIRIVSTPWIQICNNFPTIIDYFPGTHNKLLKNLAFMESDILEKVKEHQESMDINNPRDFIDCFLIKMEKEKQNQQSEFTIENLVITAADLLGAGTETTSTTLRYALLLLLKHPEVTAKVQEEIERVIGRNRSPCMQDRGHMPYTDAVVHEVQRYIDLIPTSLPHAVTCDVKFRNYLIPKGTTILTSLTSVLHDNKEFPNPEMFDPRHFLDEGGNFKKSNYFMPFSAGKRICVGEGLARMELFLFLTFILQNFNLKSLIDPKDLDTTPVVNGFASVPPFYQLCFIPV

## COc1cccc(-c2n[nH]c(SCc3ccccn3)n2)c1OC [S3643, 2-(((3-(2,3-dimethoxyphenyl)-1H-1,2,4-triazol-5-yl)thio)methyl)pyridine]
CYP1A2
  IC50: > 10 µM
CYP1A2; human, human liver microsomes, probe phenacetin
  inhibition at 10 µM: 43%
CYP2C19
  inhibition at 10 µM: 13%
[1]
  Significant responses (≥50% inhibition or stimulation): No significant responses; also recorded: No other significant off-target activities
